Assay results reported in patent US6080772A, “Thiazole compounds and methods of modulating signal transduction” (Sugen, Inc., priority 1997, dated 2000).
“And” between values parts separate entries of the source, which are not always exact repeats. Equal entries are not always repeated. Where two headings read alike, the source gives them in different places.

Tests used:
[1] = system: primary adipocytes; assay: Primary adipocyte glucose uptake assay (14C glucose); conditions: test compound 50 mM without insulin, compared to samples containing only insulin (final concentration=100 μm)
[2] = system: insulin receptor (IR); assay: Phosphotyrosine enzyme linked immunosorbent assay: pTyr on insulin receptor in NIH3T3 cells over-expressing human IR (H25 cells); conditions: for ACTIVITY (compared to control) / CONC.: Table I; for CONC.: concentration of the compound which produces the percentage increase in phosphotyrosine over the vanadate control, 90 min incubation, no insulin; for EC50: read-out: ACTIVITY EC50; for one point determination, effect on PTYR: at 100 μm

Row | SMILES | response in the primary adipocyte glucose uptake assay compared with the insulin control [1] | ACTIVITY (compared to control) ([2]; […]) | CONC. [2] | EC50 ([2]; Table II, […], no lot stated) | other results
1 | O=[N+]([O-])c1cnc(Sc2n[nH]c(-c3ccccc3)n2)s1 [Compound 1, 3-[(5-nitrothiazol-2-yl)mercapto]-5-phenyl-1,2,4-triazole] | did not give a response greater than or equal to the insulin control | 30% | 53 µM | 17 µM | –
2 | CC(C)(C)c1nc(Sc2ncc([N+](=O)[O-])s2)n[nH]1 [Compound 2, 2-[(5-nitro-thiazol-2-yl)mercapto]-5-t-butyl-1,2,4-triazole] | did not give a response greater than or equal to the insulin control | – | 4.1 µM | 16 to 20 µM | –
3 | O=[N+]([O-])c1cnc(Sc2n[nH]c(-c3cccs3)n2)s1 [Compound 3, 3-[(5-nitrothiazol-2-yl)mercapto]-5-(thien-2-yl)-1,2,4-triazole] | did not give a response greater than or equal to the insulin control | 50% | 77 µM | 22 to 32 µM | –
4 | O=[N+]([O-])c1cnc(Sc2nc(-c3ccc(Cl)cc3)n[nH]2)s1 [Compound 4, 3-(4-chlorophenyl)-5-[(5-nitrothiazol-2-yl)mercapto]-1,2,4-triazole] | did not give a response greater than or equal to the insulin control | 30% | 100 µM | 15 to 49 µM | –
5 | O=[N+]([O-])c1cnc(Sc2nnc(O)n2-c2ccccc2)s1 [Compound 5, 3-hydroxy-5-[(5-nitrothiazol-2-yl)mercapto]-4-phenyl-1,2,4-triazole] | did not give a response greater than or equal to the insulin control | 30% | 13 µM | 13 to 20 µM | –
6 | O=[N+]([O-])c1cnc(Sc2nnc(O)n2C2CCCCC2)s1 [Compound 6, 4-Cyclohexyl-3-hydroxy-5-[(5-nitrothiazol-2-yl)mercapto]-1,2,4-triazole] | did not give a response greater than or equal to the insulin control | 30% | 100 µM | – | increase (PTYR) ([2]; Table II, at 100 μM): 50%
7 | O=[N+]([O-])c1cnc(Sc2nnc(O)n2Cc2ccccc2)s1 [Compound 7] | did not give a response greater than or equal to the insulin control | – | 200 µM and 100 µM | 13 µM | –
8 | O=[N+]([O-])c1cnc(Sc2nnc(O)n2-c2ccccc2C(F)(F)F)s1 [Compound 8, 3-hydroxy-5-[(5-nitrothiazol-2-yl)mercapto]-4-[2-(trifluoromethyl)phenyl]-1,2,4-triazole] | did not give a response greater than or equal to the insulin control | 30% | 24 µM | – | –
9 | CCn1nc(C)cc1-c1nnc(Sc2ncc([N+](=O)[O-])s2)n1CCCOC [Compound 9, 3-(1-ethyl-3-methylpyrazol-5-yl)-4-(3-methoxy-n-propyl)-5-[5-(nitrothiazol-2-yl)mercapto]-1,2,4-triazole] | did not give a response greater than or equal to the insulin control | 50% | 3.9 µM | – | EC50 ([2]; Table II, LOT 2): 6 µM; EC50 ([2]; Table II, LOT3): 16 µM
10 | Cn1ccnc1Sc1ncc([N+](=O)[O-])s1 [Compound 13, 1-Methyl-2-[(5-nitrothiazol-2-yl)mercapto]imidazole] | did not give a response greater than or equal to the insulin control | – | – | – | EC50 ([2]; Table II, LOT 1): 13 µM; EC50 ([2]; Table II, LOT 2): 14 µM
11 | Nc1nnc(Sc2ncc([N+](=O)[O-])s2)s1 [Compound 14] | did not give a response greater than or equal to the insulin control | – | – | 8 µM | –
12 | Cn1nnnc1Sc1ncc([N+](=O)[O-])s1 [Compound 15] | did not give a response greater than or equal to the insulin control | – | – | – | increase in PTYR ([2]; Table II, at 50 μM, LOT2): 40%; EC50 ([2]; Table II, LOT 1): 8.4 µM
13 | O=[N+]([O-])c1cnc(Sc2nc3ccccc3[nH]2)s1 [Compound 79, 2-[(5-Nitrothiazol-2-yl)mercapto]benzimidazole] | did not give a response greater than or equal to the insulin control | – | – | – | EC50 ([2]; Table III, […]): 23 µM
14 | O=[N+]([O-])c1cnc(Sc2ncc(C(F)(F)F)cn2)s1 [Compound 83, 2-[(5-Nitrothiazol-2-yl)mercapto]-5-(trifluoromethyl)pyrimidine] | did not give a response greater than or equal to the insulin control | – | – | 8.8 µM | –
15 | Cc1nccc(C(F)(F)F)c1-c1nnc(Sc2ncc([N+](=O)[O-])s2)o1 [Compound 86, 2-[2-Methyl-4-(trifluoromethyl)pyrid-3-yl]-5-[(5-nitrothiazol-2-yl)mercapto]-1,3,4-oxadiazole] | did not give a response greater than or equal to the insulin control | – | – | – | increase in PTYR ([2]; Table II, at 25 μM): 59%
16 | CC(C)n1c(Sc2ncc([N+](=O)[O-])s2)nc2ccccc21 [Compound 94, 1-Isopropyl-2-[(5-nitrothiazol-2-yl)mercapto]benzimidazole] | did not give a response greater than or equal to the insulin control | – | – | > 100 µM | –
17 | CC(C)n1c(Sc2ncc([N+](=O)[O-])s2)nc2cc(C(F)(F)F)ccc21 [Compound 95, 1-Isopropyl-2-[(5-nitrothiazol-2-yl)mercapto]-5-(trifluoromethyl)benzimidazole] | did not give a response greater than or equal to the insulin control | – | – | > 100 µM | –
18 | Cn1c(O)nnc1Sc1ncc([N+](=O)[O-])s1 [Compound 99] | did not give a response greater than or equal to the insulin control | – | – | – | one point determination, effect on PTYR ([2]; Table II): no effect
19 | CCCCCn1c(O)nnc1Sc1ncc([N+](=O)[O-])s1 [Compound 100] | did not give a response greater than or equal to the insulin control | – | – | – | one point determination, effect on PTYR ([2]; Table II): no effect
20 | O=[N+]([O-])c1cnc(Sc2nc3cnccc3[nH]2)s1 [Compound 101] | did not give a response greater than or equal to the insulin control | – | – | 7 to 15 µM | –
